ChEMBL document CHEMBL2176972, “Potential use of selective and nonselective Pim kinase inhibitors for cancer therapy” (J Med Chem, 2012)

Assays:
[1] = target: Serine/threonine-protein kinase pim-2 (Homo sapiens, UniProt Q9P1W9); assay: Competitive inhibition of PIM2 in presence of ATP
[2] = target: Casein kinase II subunit alpha (Homo sapiens, UniProt P68400); assay: Competitive inhibition of CK2alpha using RRREDEESDDEE as substrate after 5 mins by scintillation counter in presence of [gamma-32P]ATP
[3] = target: Serine/threonine-protein kinase pim-1 (Homo sapiens, UniProt P11309); assay: Competitive inhibition of PIM1 using KKRNRTLTV as substrate after 5 mins by scintillation counter in presence of [gamma-32P]ATP
[4] = target: T1, Serine/threonine-protein kinase haspin (Homo sapiens, UniProt Q8TF76); assay: Inhibition of haspin
T1 sequence (Q8TF76 whole entry): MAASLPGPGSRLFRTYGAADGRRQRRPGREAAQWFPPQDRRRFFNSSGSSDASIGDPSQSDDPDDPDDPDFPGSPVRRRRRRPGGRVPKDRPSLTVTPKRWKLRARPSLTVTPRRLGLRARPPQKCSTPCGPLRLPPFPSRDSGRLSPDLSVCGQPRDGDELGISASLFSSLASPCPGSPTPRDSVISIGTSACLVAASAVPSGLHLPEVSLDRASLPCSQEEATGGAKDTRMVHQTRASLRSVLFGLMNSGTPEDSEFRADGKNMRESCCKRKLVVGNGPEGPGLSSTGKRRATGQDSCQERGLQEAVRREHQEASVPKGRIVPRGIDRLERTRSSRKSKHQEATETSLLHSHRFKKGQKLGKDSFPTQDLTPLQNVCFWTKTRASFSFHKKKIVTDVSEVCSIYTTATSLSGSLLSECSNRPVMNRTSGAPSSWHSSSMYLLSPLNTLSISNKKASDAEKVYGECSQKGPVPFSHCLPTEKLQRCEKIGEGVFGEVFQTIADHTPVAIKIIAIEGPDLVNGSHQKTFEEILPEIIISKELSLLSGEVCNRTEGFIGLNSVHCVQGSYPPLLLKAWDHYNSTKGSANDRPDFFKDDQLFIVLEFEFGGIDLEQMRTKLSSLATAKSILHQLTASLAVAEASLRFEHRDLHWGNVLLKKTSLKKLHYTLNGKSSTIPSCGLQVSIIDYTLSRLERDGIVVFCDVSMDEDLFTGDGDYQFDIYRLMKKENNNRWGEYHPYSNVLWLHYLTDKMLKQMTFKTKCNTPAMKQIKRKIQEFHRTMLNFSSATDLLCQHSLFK

Q: With `O=C1NC(=O)/C(=C/c2cccc(C(F)(F)F)c2)S1` as the molecule, how does the Ki [1] read?
A: 0.1 µM

Q: What does the source list for `O=C(O)c1cc2c(ccc3cc4c(ccc5oc(C(=O)O)cc54)cc32)o1`?
A: IC50 [2]: 0.063 µM; IC50 [3]: 0.02 µM

Q: `CN1CCC(CNc2ccc3ncc(-c4cccc(OC(F)(F)F)c4)n3n2)CC1` [SGI-1776] was tested. Which IC50 [4] did it give?
A: 0.034 µM
